Source: PubChem BioAssay AID1197 (NMMLSC, 2008)
pEC50: −log10 of the molar value. Active and inactive are the calls of the source. How the calls were made is not given here.

Test system: not listed separately
Test: LNCaP cell killing by flow cytometry event count, dose response, cytotoxicity control for prostate cell differentiation activator project (AID 1197)
Conditions: LNCaP cell loss, flow cytometry event count, 4 d; at 30 µM (top of the series)
With COc1ccccc1NC(=O)c1nc[nH]c1C(=O)Nc1ccccc1OC the event count (lower = more killing) was 87.2% (inactive).
In the case of CCN(CC)CCCNC(=O)c1cc2c(-c3ccc(Cl)cc3)nn(C)c2s1, the event count (lower = more killing) was 22.2% (inactive).
For COc1ccc(N2CCN(CCCNC(=O)CC3Oc4ccc(C)cc4NC3=O)CC2)cc1 (stereo not given), the event count (lower = more killing) was 343% (inactive).
With CC1CCCCN1CCNC(=O)c1ccc2c(=O)n(CCc3ccccc3)c(=O)[nH]c2c1 (stereo not given) the event count (lower = more killing) was 191% (inactive).
With CCCOc1ccccc1C1CC(=O)Nc2cc3c(cc21)OCO3 (stereo not given) the event count (lower = more killing) was 21.8% (inactive).
For Cn1c(=O)[nH]c(=O)c2c1nc(Br)n2CCCSc1nc2ccccc2o1, the event count (lower = more killing) was 150% (inactive).
For COc1ccc(N2CCN(CCCNC(=O)CCCn3c(=O)[nH]c4ccsc4c3=O)CC2)cc1, the event count (lower = more killing) was 175% (inactive).
With CCOc1ccc(NC(=O)COc2nsnc2N2CCCCC2)cc1 the event count (lower = more killing) was 160% (inactive).
With CC1CCCCN1CCNC(=O)c1cc2c(-c3ccccc3F)nn(C)c2s1 (stereo not given) the event count (lower = more killing) was 103% (inactive).
With Cc1cccc(-c2nsc(SCC(=O)Nc3nccs3)n2)c1 the event count (lower = more killing) was 296% (inactive).
For CN1CCN(c2cc3c(c4c2[nH]c2ccccc24)C(=O)CC(C)(C)C3)CC1, the event count (lower = more killing) was 48.8% (inactive).
With O=C(NCCCN1CCN(c2cccc(Cl)c2)CC1)c1cccc(N2CCCC2=O)c1 the event count (lower = more killing) was 305% (inactive).
With CCN1CCN(c2ncc(C(=O)Nc3cc(Cl)c(OC)cc3OC)c3ccccc23)CC1 the event count (lower = more killing) was 208% (inactive).
For CCN1CCN(CCNC(=O)C2CCN(Cc3nc(-c4ccc(Cl)cc4)oc3C)CC2)CC1, the event count (lower = more killing) was 83.2% (inactive).
In the case of CCN(CC)CC(=O)Nc1ccc(-c2nc3cc(NC(=O)CN(CC)CC)ccc3o2)cc1, the event count (lower = more killing) was 98.5% (inactive).
With O=C(c1ccccc1)c1ccc(N2CCNCC2)cc1 the event count (lower = more killing) was 236% (inactive).
With Cc1ccccc1-c1nc(CN2CCC(C(=O)NCCCN3CC(C)CC(C)C3)CC2)c(C)o1 (stereo not given) the event count (lower = more killing) was 108% (inactive).
In the case of O=C(Cn1cc2c(n1)CCCC2)NCCCN1CCN(c2ccccc2F)CC1, the event count (lower = more killing) was 333% (inactive).
For Cc1cc(C)nc(N2CCC(C(=O)Nc3ccc(Oc4ccccc4)cc3)CC2)n1, the event count (lower = more killing) was 170% (inactive).
In the case of Oc1c(CN2CCCCC2)cc(COCc2ccccc2)c2cccnc12, the event count (lower = more killing) was 137% (inactive).
For Cc1cc(N2CCN(C)CC2)nc2ccc(NC(=O)c3ccc(Br)o3)cc12, the event count (lower = more killing) was 422% (inactive).
In the case of CCCS(=O)(=O)N1CCCC(C(=O)NCCCN2CCN(c3ccc(F)cc3)CC2)C1 (stereo not given), the event count (lower = more killing) was 238% (inactive).
With CCOc1ccccc1NC(=O)c1nc[nH]c1C(=O)Nc1ccccc1OCC the event count (lower = more killing) was 257% (inactive).

Test system: LNCaP cell loss, flow cytometry event count, 4 d
Test: as above
Conditions: not given
Cc1oc(-c2ccc(Cl)cc2)nc1CN1CCC(C(=O)NCCCN2CCOCC2)CC1 gave a pEC50 of 5.20.
With COc1ccc(-c2noc(-c3cc(Cl)ccc3Cl)n2)cc1OC the pEC50 was 5.32.
For Cn1c(=O)cc(OCC(=O)NCCCN2CCN(c3ccccc3F)CC2)c2ccccc21, the pEC50 was 7.00.
For Cn1nc(-c2ccc(Cl)cc2)c2cc(C(=O)NCCCN3CCCC3)sc21, the EC50 was 13 µM (inactive).
For COc1ccc(-c2oc3ncn(CCN4CCOCC4)c(=N)c3c2-c2ccc(OC)cc2)cc1, the pEC50 was 6.70.
In the case of COc1ccc(-c2noc(CCC(=O)NCCCN3CCC(Cc4ccccc4)CC3)n2)cc1, the EC50 was 15.6 µM (inactive).
With CCc1ccc(-c2nc(CN3CCC(C(=O)NCc4ccc(F)cc4)CC3)c(C)o2)cc1 the pEC50 was 5.29.
With Cc1noc(/C=C/c2ccco2)c1S(=O)(=O)N1CCC(C(=O)N2CCc3ccccc3C2)CC1 the pEC50 was 5.34.
Cc1ccccc1CS(=O)(=O)CCC(=O)NCCCN1CCN(c2ccccc2F)CC1 showed a pEC50 of 5.16.
Compound Cc1ccc(OCC(O)Cn2c(=N)n(CCN3CCCCC3)c3ccccc32)cc1 (stereo not given) has a pEC50 of 5.06.
In the case of Cn1nc(-c2ccc(Cl)cc2)c2cc(C(=O)NCCCN3CCOCC3)sc21, the EC50 was 14.5 µM (inactive).
CCN1CCCC1CNC(=O)C1CCN(Cc2nc(-c3cccc(Br)c3)oc2C)CC1 (stereo not given) gave a pEC50 of 5.18.
Compound CCOC(=O)c1c(C)[nH]c(C(=O)COC(=O)C2CC2C)c1C (stereo not given) has a pEC50 of 6.78.
In the case of CCOc1ccc(-c2cc(C(=O)NCCCN3CCN(CC)CC3)c3ccccc3n2)cc1, the EC50 was 21.7 µM (inactive).
COc1ccccc1N1CCN(Cc2cc(Br)c(O)c3ncccc23)CC1 gave a pEC50 of 6.45.
With Cc1cc2c(=O)n(CC(=O)N3CCN(c4ccccc4)CC3)cnc2s1 the pEC50 was 5.79.
For N=c1n(CCN2CCCCC2)c2ccccc2n1CC(O)COc1ccccc1 (stereo not given), the EC50 was 19.2 µM (inactive).
Work on CCOC(=O)c1[nH]c(C)c(C(=O)N2CCc3ccccc32)c1C yielded a pEC50 of 6.05.
Compound COc1ccc(CCN2CCC(Nc3nc4ccccc4n3Cc3ccc(F)cc3)CC2)cc1 has a pEC50 of 5.43.
Compound CC(C)N1CCC2(CC1)N=C(c1ccc3c(c1)OCO3)CC(c1cc(Cl)ccc1O)N2 (stereo not given) has a pEC50 of 5.71.
Compound COc1ccccc1N1CCN(c2nc3ccccc3nc2C(C#N)C(=O)OC(C)C)CC1 (stereo not given) has a pEC50 of 5.56.
COc1ccc(-c2cc(C(F)(F)F)nc(N3CCN(Cc4ccccc4)CC3)n2)cc1OC gave a pEC50 of 6.26.
